What was measured:
[1] = tested on: C57BL/6N male mice; assay: Inhibitory effect on increased blood glucose after oral glucose load in fasted mice; type: in vivo; conditions: one hour before glucose load (3 g/kg, p.o.), C57BL/6N male mice fasted 21 hours
Experimental: C57BL/6N male mice was fasted for 21 hours, and then a stratified randomization allocation was carried out by EXSUS Ver7.6 NP (Arm Systex Co., Ltd.) based on body weights (n=8). Vehicle (solvent: 0.1% Tween 80/0.5% hydroxypropyl methylcellulose) (control group) or a suspended solution of a test compound in the vehicle (test compound group) was orally administered to the mice, and a glucose load (3 g/kg, p.o.) was carried out one hour after administration of a test compound. Blood samplings from the test mice were carried out at each time point of just before administration of drug (−60 min), immediately before glucose load (0 min), 30 minutes (30 min), 60 minutes (60 min) and 120 minutes (120 min) after glucose load. Blood glucose levels at each time point were measured by glucose CII-Test Wako (manufactured by Wako Pure Chemical Industries, Ltd.), AUC (0-120 min) was calculated in each administration group on the basis of the measured value, and evaluated by time-dependent variance analysis and Student's t-Test using EXSUS Ver7.6NP (Arm Systex Co., Ltd.).
An inhibitory effect on increased blood glucose of each test compound (A ratio value of AUC (0-120 min) of the test compound group in case that AUC (0-120 min) of the control group is 100) is shown in the following Table 36.

[2] = target: T1, human GPR119 (Homo sapiens, UniProt Q8TDV5); assay: GPR119 agonistic activity: cAMP production in human GPR119-expressed CHO cells (HTRF cAMP kit); type: cell-based; conditions: human GPR119-expressed CHO cells (L8-18), 37° C. for 30 minutes, 500 μM IBMX
T1 construct: expressed in transfected cells; host or cells: CHO cells (LM-3 mock cells carrying luciferase reporter pLG3-CRE6-CRE-VIP); resulting line L8-18
T1 sequence (Q8TDV5 1-335): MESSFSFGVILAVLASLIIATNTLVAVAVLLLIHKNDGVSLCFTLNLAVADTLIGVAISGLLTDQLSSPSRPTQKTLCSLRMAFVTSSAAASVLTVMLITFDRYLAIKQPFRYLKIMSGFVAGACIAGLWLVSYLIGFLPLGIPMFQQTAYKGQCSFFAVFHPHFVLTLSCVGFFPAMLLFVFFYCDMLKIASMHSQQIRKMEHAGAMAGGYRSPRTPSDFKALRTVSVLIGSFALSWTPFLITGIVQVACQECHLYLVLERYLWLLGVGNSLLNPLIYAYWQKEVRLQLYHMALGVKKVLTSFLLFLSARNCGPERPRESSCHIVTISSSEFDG
Experimental: The present experiment is directed to evaluate GPR119 agonistic activity (in vitro) of test compounds by adding the compounds to human GPR119-expressed CHO cells to determine cAMP production of the cells.
Human GPR119-expressed CHO cells (L8-18) were prepared by introducing an expression vector pMSF1-GPR119 (Geneticin-resistance) carrying human GPR119 genes into CHO cells (LM-3; Mock cells) wherein lusiferase expression vector pLG3-CRE6-CRE-VIP (Hygromycin B-resistance) were introduced according to the known method (The Journal of Biological Chemistry Vol. 274 (34), pp. 23940-23947).
Cryopreserved L8-18 cells were melted, and then suspended into 9-fold amounts of assay buffer and centrifuged (1000 rpm, 5 minutes) at room temperature. The supernatant was removed, and then the precipitated cells were resuspended into assay buffer (4 mL). Thereto was added assay buffer which contained IBMX (manufactured by Sigma, #17018-1G), and 7.5×10^4 cells/mL of cell suspension was prepared. The cell suspension was let stand at room temperature for 15 minutes, and then to each well of 96 half well white plate (manufactured by Corning Incorporated, #3693) were added the cell suspension (20 μL) and a solution of a test compound or AR231453 (5 μL; a total of 25 (final concentration: 1500 cells/well, 500 μM IBMX, 1% dimethylsulfoxide). The mixture was incubated at 37° C. for 30 minutes, and then to each well were added a 20-fold diluted solution (each 12.5 μL/well) of cAMP-d2 and Anti cAMP-Cryptate of HTRF cAMP kit (manufactured by Cisbio, #62AM4PEC). The mixture was stirred, and then was let stand for 1 hour under light shielding. A fluorescence intensity was measured by time-resolved fluorescence mode (Ex: 320 nm, Em: 665 nm, 620 nm) of Microplate Reader (ARVO or SpectraMax M5e). In ARVO, Ratios [Ratio=(665 nm/620 nm)×10^4)] of cAMP-d2 to Anti cAMP-Cryptate were calculated from the resulting fluorescence intensity, and cAMP concentrations of each well were calculated from cAMP standard curve prepared by the Ratios and GraphPad Prism. In SpectraMax M5e, cAMP concentrations of each well were calculated on the basis of a standard curve prepared by the resulting fluorescence intensity and Softmax Pro.
EC50 of test compounds were calculated by GraphPad Prism.

| SMILES | Inhibitory Effect on Increased Blood Glucose (ratio value of AUC (0-120 min) of test compound group, control group = 100) ([1]; 3 mg/kg orally) | Inhibitory Effect on Increased Blood Glucose (ratio value of AUC (0-120 min) of test compound group, control group = 100) ([1]; 10 mg/kg orally) | other results |
| --- | --- | --- | --- |
| CC(C)OC(=O)N1CCC(n2cc(F)c3c(Nc4ccc(C(=O)N5CCCC5)cc4F)ncnc32)CC1 [Example Compound 163] | 86 |  |  |
| CCc1cnc(N2CCC(n3cc(F)c4c(Nc5ccc(C(=O)N6CC[C@@H](O)C6)cc5Cl)ncnc43)CC2)nc1 [Example Compound 185] |  |  | Inhibitory Effect on Increased Blood Glucose (ratio value of AUC (0-120 min) of test compound group, control group = 100) ([1]; 1 mg/kg orally): 89 |
| CCc1cnc(N2CCC(n3cc(F)c4c(Nc5ccc(C(=O)N(C)C)cc5F)ncnc43)CC2)nc1 [Example Compound 6, 4-[7-[1-(5-ethylpyrimidin-2-yl)piperidin-4-yl]-5-fluoro-7H-pyrrolo[2,3-d]pyrimidin-4-ylamino]-3-fluoro-N,N-dimethylbenzamide] |  | 85 |  |
| CCCc1cnc(N2CCC(n3cc(F)c4c(Nc5ccc(C(=O)N6CC[C@@H](O)C6)cc5F)ncnc43)CC2)nc1 [Example Compound 121] | 82 |  |  |
| CC(C)c1cnc(N2CCC(n3cc(F)c4c(Nc5ccc(C(=O)N(C)CCO)cc5F)ncnc43)CC2)nc1 [Example Compound 124] | 86 |  |  |
| CCc1cnc(N2CCC(n3cc(F)c4c(Nc5ccc(C(=O)N6CC[C@H](O)C6)cc5F)ncnc43)CC2)nc1 [Example Compound 62] |  | 86 | EC50 [2]: < 1000 nM |
| CCc1cnc(N2CCC(n3cc(F)c4c(Nc5ccc(C(=O)N6CC[C@@H](O)C6)cc5F)ncnc43)CC2)nc1 [Example Compound 61] |  | 85 | EC50 [2]: < 1000 nM |
| CC(C)Oc1cnc(N2CCC(n3cc(F)c4c(Nc5ccc(C(=O)N(C)CCO)cc5F)ncnc43)CC2)nc1 [Example Compound 153] | 84 |  | EC50 [2]: < 1000 nM |
| CC(C)c1cnc(N2CCC(n3cc(F)c4c(Nc5ccc(C(=O)N6CCC[C@@H](O)C6)cc5F)ncnc43)CC2)nc1 [Example Compound 132] | 90 |  |  |
| CCc1cnc(N2CCC(n3cc(F)c4c(Nc5ccc(C(=O)N(C)CCO)cc5F)ncnc43)CC2)nc1 [Example Compound 8, 4-[7-[1-(5-ethylpyrimidin-2-yl)piperidin-4-yl]-5-fluoro-7H-pyrrolo[2,3-d]pyrimidin-4-ylamino]-3-fluoro-N-(2-hydroxyethyl)-N-methylbenzamide] |  | 83 |  |
| O=C(c1ccc(Nc2ncnc3c2c(F)cn3C2CCN(c3noc(C(F)(F)F)n3)CC2)c(F)c1)N1CC[C@@H](O)C1 [Example Compound 178] |  |  | Inhibitory Effect on Increased Blood Glucose (ratio value of AUC (0-120 min) of test compound group, control group = 100) ([1]; 1 mg/kg orally): 88 |
| CN(CCO)C(=O)c1ccc(Nc2ncnc3c2c(F)cn3C2CCN(c3ncc(C4CC4)cn3)CC2)c(F)c1 [Example Compound 129] | 88 |  |  |
| CCc1cnc(N2CCC(n3cc(F)c4c(Nc5ccc(C(=O)N(C)C)cc5Cl)ncnc43)CC2)nc1 [Example Compound 29] |  | 88 | EC50 [2]: < 1000 nM |
| CC(C)c1nc(N2CCC(n3cc(F)c4c(Nc5ccc(C(=O)N(C)CCO)cc5F)ncnc43)CC2)no1 [Example Compound 115] | 92 |  |  |
| CC(C)c1noc(N2CCC(n3cc(F)c4c(Nc5ccc(C(=O)N6CCCC6)cc5F)ncnc43)CC2)n1 [Example Compound 161] | 87 |  |  |
| CCc1cnc(N2CCC(n3cc(F)c4c(Nc5ccc(C(=O)N(C)CCCO)cc5F)ncnc43)CC2)nc1 [Example Compound 63] |  | 89 | EC50 [2]: < 1000 nM |
| CN(CCO)C(=O)c1ccc(Nc2ncnc3c2c(F)cn3C2CCN(c3ncc(Cl)cn3)CC2)c(F)c1 [Example Compound 134] | 82 |  |  |
| O=C(c1ccc(Nc2ncnc3c2c(F)cn3C2CCN(c3ncc(C4CC4)cn3)CC2)c(F)c1)N1CC[C@@H](O)C1 [Example Compound 128] | 83 |  |  |
| CC(C)Oc1cnc(N2CCC(n3cc(F)c4c(Nc5ccc(C(=O)N(C)CCCO)cc5F)ncnc43)CC2)nc1 [Example Compound 154] | 86 |  |  |

Source: patent US20120016119A1, “NOVEL PYRROLO(2,3-d)PYRIMIDINE COMPOUND” (priority 2009, published 2012)
